The source of these data is patent US6693215B2, “Process for the preparation of salts of L-carnitine and alkanoyl L-carnitine with mucic acid” (Sigma-Tau Industrie Farmaceutiche Riunite S.p.A., priority 2002, dated 2004).

The nature of this data set: Analytical data of the compound obtained: water solubility. It counts as physicochemical. To be noted: product of Example 1, white powder.

For the compound `CC(=O)OC(CC(=O)O)C[N+](C)(C)C.CC(=O)OC(CC(=O)O)C[N+](C)(C)C.O=C([O-])C(O)C(O)C(O)C(O)C(=O)[O-]` [Example 1, acetyl L-carnitine mucate (2:1)], the Water solubility entry is on record as “Poorly soluble”.
